The subject of assay [1] is T. b. brucei Lab 110 EATRO. The assay can be described thus: In vitro trypanocidal activity, bloodforms in HMI-18 medium, Coulter counts. To be noted: 48 h exposure, bloodforms, read-out: Lab 100 EATRO IC50. In kind it is cell-based, Trypanosoma brucei brucei.
Protocol: (§1) The compounds were tested against trypanosome isolates grown as blood forms in HMI-18 medium containing 20% horse serum in 24 well microplates at 37° C. in 5% CO2. Wells were inoculated with 1×10^5 trypanosomes. […] One-half the volume was replaced daily. Cell counts were made daily with a Coulter Counter, Model Z1 (Beckman Coulter, Miami, Fla., USA). Cells were diluted with Isoton I buffer (Beckman Coulter) and the aperture was standardized at 5.14 μm. Background checks were performed daily on 1:10 dilutions of medium. Counts, normalization, and coincident counts were accounted for by the standardized Coulter analysis program. Occasionally, hemocytometer counts were performed as a check on the validity of the Coulter program. IC50 values were determined after 48 h from semi-log plots and the values are the result of duplicate determinations. Initially a broad concentration curve was used and then a close concentration curve from which IC50 values were determined. Assays were done in duplicate and each point was the average of the two. Control cells grew to 5×10^6/ml.
(§2) Coulter counts were made daily and IC50 values determined after 48 hours exposure.
Assay [2] has as its system T. b. rhodesiense KETRI 243. The description is as above. In kind it is cell-based, Trypanosoma brucei rhodesiense. To be noted: 48 h exposure.
Protocol: as §1, §2
In a further assay the test system is calf thymus DNA. Description: Thermal denaturation study, DNA binding affinity (ΔTm). To be noted: 1:5 compound to base pair ratio.
In a further assay the test system is poly(dA-dT). The description is as above. To be noted: 1:5 compound to base pair ratio.
Assay [3] relates to T. b. brucei Lab 110 EATRO. The assay can be described thus: In vivo efficacy in infected mice. Also on record: species or system Trypanosoma brucei brucei.
Protocol: Female Swiss-Webster mice (weight, 20 g) were infected (intraperitoneally) with 2.5×10^5 trypanosomes from rat blood, and the infection was allowed to develop for 24 h before drug treatment was begun. Groups of three mice each were injected (intraperitoneally) with each drug concentration. All of the experiments included a group of untreated controls. […] Parasitemia of animals dying of infection averaged 0.5-1.0×10^9/mL of blood. These infections are very predictable and daily counts were not done because of the labor involved. […] Animals were monitored weekly for parasites in tail vein blood smears. Mice were considered cured if they survived more than 30 days after the death of the last control with no parasites in tail vein blood smears. MSD (mean survival in days) was also recorded for each group. It is the average time of survival of the animals in the group, exclusive of cured animals.
Mice were infected with 250,000 parasites and dosing commenced 24 h. post infection. Mice were separated into groups of three and given single i.p doses for 3 days unless otherwise noted. Infected untreated controls were used for each experiment. Mice were considered cured if surviving more than 30 days beyond death of controls without parasites in tail vein blood smears. MSD, mean survival in days, exclusive of cured animals.
The mark [4] stands for this setting: mice, 1, 2.5, 5, 10, 15, 25 mg/kg/day i.p. for 3 days (all doses failed to cure).
Where [5] appears, read: mice, 1, 2.5, 5, 10, 15, 25 mg/kg/day i.p. for 3 days (all doses).
The mark [6] stands for this setting: Trypanosoma brucei, RHODESIENSE
Where [7] appears, read: mice, 1 mg/kg/day i.p. for 3 days.
[8] abbreviates: mice, 5 mg/kg/day i.p. for 3 days.
Where [9] appears, read: mice, 10 mg/kg/day i.p. for 3 days.

Read-outs that look alike come from different tables or passages of the source. Marks after values point to notes of the source that are not given here.
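Throughout, for DNA Binding Δ Tm Calf thymus: shift in midpoint melting temperature of calf thymus DNA thermal denaturation curves caused by compound binding, values averaged over at least two determinations.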
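Throughout, for DNA Binding Δ Tm Poly (dA-dT): shift in the midpoint temperature of the thermal melting curve of poly(dA-dT), each value the mean of two or more independent determinations.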

Protocol for calf thymus DNA: (§3) The binding affinity was measured by determining the change in the midpoint (Tm) of the thermal denaturation curves of calf thymus DNA as well as poly(dA-dT) at a 1:5 compound to base pair ratio.
Protocol for poly(dA-dT): as §3

As a reminder, the IC50 is the concentration needed to halve the response being measured. As to `CCC(C)CNC(=N)c1ccc(N2CCN(c3ccc(C(=N)NCC(C)CC)cc3)CC2)cc1.Cl.Cl` (centres unmarked) [compound 0138], the values for the IC50 in assay [1] and in assay [2] were 13 nM and 39 nM, respectively. The “DNA Binding Δ Tm Calf thymus” value in the assay on calf thymus DNA stood at 12.9 °C. For the same molecule, in the assay with poly(dA-dT), the “DNA Binding Δ Tm Poly (dA-dT)” value amounted to 16.0 °C.
Consider `CCCCCCCCCCNC(=N)c1ccc(N2CCN(c3ccc(C(=N)NCCCCCCCCCC)cc3)CC2)cc1.Cl.Cl` [compound 0131], for which the IC50 in assay [1] was 180 nM; in assay [2], 220 nM. For the same molecule, the “DNA Binding Δ Tm Calf thymus” value with calf thymus DNA is 1.3 °C. In assay [3] (setting [4]), the “# Cured/#Treated (%)” value is on record as 0/3^a. Further, the MSD in assay [3] (setting [5]) is 5 days.
Regarding `Cl.Cl.N=C(NC1CC1)c1ccc(N2CCN(c3ccc(C(=N)NC4CC4)cc3)CC2)cc1` [63C, N,N′-Dicyclopropyl 4,4′-(1,4-piperazinediyl)bisbenzenecarboxidamide], the “DNA Binding Δ Tm Calf thymus” value in the assay on calf thymus DNA came to 14.5 °C. Besides, the “DNA Binding Δ Tm Poly (dA-dT)” value with poly(dA-dT) amounted to 23.9 °C.
For `O=Cc1ccc(N2CCN(c3ccc(C=O)cc3)CC2)cc1` [compound 0107], in that order: −0.2 °C and 0.0 °C.
In the case of `CN1CCN(C)C1c1ccc(N2CCN(c3ccc(C4N(C)CCN4C)cc3)CC2)cc1` [compound 0108], the IC50 in assay [1] amounted to 6800 nM; in assay [2], 2320 nM. In addition, the “DNA Binding Δ Tm Calf thymus” value with calf thymus DNA was 2.4 °C. The “DNA Binding Δ Tm Poly (dA-dT)” value with poly(dA-dT) was 1.8 °C.
Turning to `N=C(NO)c1ccc(N2CCN(c3ccc(C(=N)NO)cc3)CC2)cc1` [compound 0125, N,N′-Dihydroxy 4,4′-(1,4-piperazinediyl)bisbenzenecarboxidamide], the IC50 in assay [1] (Trypanosoma brucei) worked out at 1020 nM; in assay [2] (setting [6]) it was 1920 nM. For the same molecule, the “DNA Binding Δ Tm Calf thymus” value in the assay with calf thymus DNA was 0.8 °C. Moreover, the “# Cured/#Treated (%)” value is given as 0/3 in assay [3] (mice, 50 mg/kg/day (po)) and 0/3 in assay [3] (mice, 100 mg/kg/day (po)). Also, the MSD in assay [3] (mice, 50 mg/kg/day (po)) was 5 days; in assay [3] (mice, 100 mg/kg/day (po)) it was 5 days; in assay [3] (mice, 100 mg/kg/day (split dose, po; 9am and 4 pm)), above 30 days.
As for `Cl.Cl.N=C(NC1CC1)c1ccc(N2CCCN(c3ccc(C(=N)NC4CC4)cc3)CC2)cc1` [73C], the values for the half-maximal inhibitory concentration (IC50) in assay [1] and in assay [2] were 870 nM and 810 nM, respectively. Besides, in the assay on calf thymus DNA, the “DNA Binding Δ Tm Calf thymus” value turned out to be 15.3 °C. Further, the “DNA Binding Δ Tm Poly (dA-dT)” value in the assay on poly(dA-dT) came out at 23.6 °C.
Consider `N=C(N)c1cccc(NC(=O)CCCCC(=O)Nc2cccc(C(=N)N)c2)c1` [compound 0715], for which the figures for the IC50 in assay [1] and in assay [2] were 41 nM and 21 nM, respectively.
For the molecule `N#Cc1ccc(N2CCN(c3ccc(C#N)cc3)CC2)cc1` [compound 0101], the IC50 in assay [1] is 2890 nM; in assay [2] it was 1050 nM. In addition, the “DNA Binding Δ Tm Calf thymus” value with calf thymus DNA was 0.1 °C. Besides, the “DNA Binding Δ Tm Poly (dA-dT)” value with poly(dA-dT) was −0.3 °C.
For `CCCCNC(=N)c1ccc(N2CCCN(c3ccc(C(=N)NCCCC)cc3)CC2)cc1.Cl.Cl` [74N] the same measures were 180 nM, 79 nM, 11.8 °C and 13.3 °C.
For `Cl.Cl.N=C(N)c1ccc(N2CCCN(c3ccc(C(=N)N)cc3)CC2)cc1` [7AM], in that order: 2.15 nM, 2.7 nM, 15.0 °C and 23.1 °C.
Consider `Cl.Cl.N=C(NC1CCCCCCC1)c1ccc(N2CCN(c3ccc(C(=N)NC4CCCCCCC4)cc3)CC2)cc1` [compound 0134], for which, in assay [1], the IC50 is 2.3 nM. The “DNA Binding Δ Tm Calf thymus” value with calf thymus DNA amounted to 12.6 °C. For the same molecule, the “DNA Binding Δ Tm Poly (dA-dT)” value in the assay with poly(dA-dT) was 15.7 °C.
For `CCCCCNC(=N)c1ccc(N2CCN(c3ccc(C(=N)NCCCCC)cc3)CC2)cc1.Cl.Cl` [compound 0127], in that order: 3 nM, 16.9 °C and 22.5 °C.
With `Cl.Cl.c1cc(C2=NCCN2)ccc1CC1CCCN(c2ccc(C3=NCCN3)cc2)C1` (centres unmarked) [4CF], the IC50 in assay [1] is 86 nM; in assay [2], 85 nM. Besides, the “DNA Binding Δ Tm Calf thymus” value with calf thymus DNA is 9.9 °C. Besides, the “DNA Binding Δ Tm Poly (dA-dT)” value with poly(dA-dT) was determined as 14.1 °C.
Turning to `Cl.Cl.N=C(NC1CCC1)c1ccc(N2CCN(c3ccc(C(=N)NC4CCC4)cc3)CC2)cc1` [compound 0143], the half-maximal inhibitory concentration (IC50) in assay [1] was determined as 6 nM; in assay [2], 51 nM. Also, the “DNA Binding Δ Tm Calf thymus” value in the assay with calf thymus DNA was determined as 16.4 °C. In addition, in assay [3] (setting [7]), the “# Cured/#Treated (%)” value is reported as 0/3. Moreover, the figures for the MSD in assay [3] (setting [7]), in assay [3] (setting [8]) and in assay [3] (setting [9]) were 5 days, 11 days and above 30 days, respectively.
Consider `N=C(NO)c1ccc(C(=O)Nc2cccc(NC(=O)c3ccc(C(=N)NO)cc3)c2)cc1` [compound 0343], for which the “DNA Binding Δ Tm Calf thymus” value in the assay on calf thymus DNA is −0.3 °C. In the assay with poly(dA-dT), the “DNA Binding Δ Tm Poly (dA-dT)” value was 0.1 °C.
For `Cl.Cl.c1cc(N2CCN(c3ccc(C4=NCCCN4)cc3)CC2)ccc1C1=NCCCN1` [632N] the same measures were 12.2 °C and 17.9 °C.
For the molecule `N=C(NO)c1ccc(NC(=O)c2ccc(C(=O)Nc3ccc(C(=N)NO)cc3)cc2)cc1` [compound 0333], in the assay with calf thymus DNA, the “DNA Binding Δ Tm Calf thymus” value is 0.6 °C. In addition, the “DNA Binding Δ Tm Poly (dA-dT)” value in the assay on poly(dA-dT) came out at 0.0 °C.
With `N=C(N)c1ccc(OCc2cccc(COc3ccc(C(=N)N)cc3)c2)cc1` [compound 0512], the IC50 in assay [1] was determined as 0.74 nM; in assay [2] it was 1.5 nM. The “DNA Binding Δ Tm Calf thymus” value with calf thymus DNA is 14.0 °C. Besides, the “# Cured/#Treated (%)” value in assay [3] (setting [7]) and in assay [3] (setting [8]) was 0/3 throughout. Also, the MSD in assay [3] (setting [7]) is 8 days; in assay [3] (setting [8]) it was 18 days; in assay [3] (setting [9]), above 30 days; in assay [3] (mice, 15 mg/kg/day i.p. for 3 days), above 30 days.
For `NC(=O)c1cccc(NC(=O)CCCCC(=O)Nc2cccc(C(N)=O)c2)c1` [compound 0717], in assay [2], the IC50 is 1980 nM. For the same molecule, the “# Cured/#Treated (%)” value in assay [3] (setting [4]) is on record as 0/3^a. This molecule came in with an MSD in assay [3] (setting [5]) of 5 days.
As for `N#Cc1ccc(NC(=O)CC(=O)Nc2ccc(C#N)cc2)cc1` [compound 0712], the figures for the half-inhibitory concentration (IC50) in assay [1] and in assay [2] were 5000 nM and 1600 nM, respectively.
For `N=C(N)c1ccc(NC(=O)CCCCCCCC(=O)Nc2ccc(C(=N)N)cc2)cc1` [compound 0708] the same measures were 400 nM and 240 nM.
With `N=C(N)c1ccc(NC(=O)CCCCCCCCCCC(=O)Nc2ccc(C(=N)N)cc2)cc1` [compound 0711], the IC50 in assay [1] is 8.4 nM; in assay [2], 6.6 nM. Moreover, the “# Cured/#Treated (%)” value in assay [3] (setting [4]) is listed as 0/3^a. Further, the MSD in assay [3] (setting [5]) fell in the range of 5 to 10.3 days.
Regarding `N/C(=N\O)c1ccc(NC(=O)CCCC(=O)Nc2ccc(/C(N)=N/O)cc2)cc1` [compound 0704, N,N′-bis[4-(N-Hydroxyamidino)phenyl]pentanediamide], the IC50 in assay [1] (Trypanosoma brucei) amounted to 7300 nM; in assay [2] (setting [6]) it was 10000 nM.
`N=C(N)c1ccc(NC(=O)CCCCC(=O)Nc2cccc(C(=N)N)c2)cc1` [compound 0721]: the figures for the concentration for half-maximal inhibition (IC50) in assay [1] and in assay [2] were 12.5 nM and 7 nM, respectively.
As to `CCCCCCCCNC(=N)c1ccc(N2CCN(c3ccc(C(=N)NCCCCCCCC)cc3)CC2)cc1.Cl.Cl` [compound 0130], the results for the IC50 in assay [1] and in assay [2] were 3.65 nM and 19 nM, respectively. Further, the “DNA Binding Δ Tm Calf thymus” value with calf thymus DNA came out at 4.2 °C. Further, the “# Cured/#Treated (%)” value in assay [3] (mice, 1, 2.5, 5, 10, 15, 20 mg/kg/day i.p. for 3 days (all doses failed to cure)) is 0/3^a. In assay [3] (mice, 1, 2.5, 5, 10, 15, 20 mg/kg/day i.p. for 3 days (all doses)), this molecule showed an MSD of 5 days.
The molecule `N=C(N)c1ccc(OCCCCCOc2ccc(C(=N)N)cc2)cc1` [Pentamidine, reference compound] yielded an IC50 in assay [2] (setting [6]) of 2.32 nM. Also, the “DNA Binding Δ Tm Calf thymus” value in the assay with calf thymus DNA stood at 11.1 °C. Also, the “DNA Binding Δ Tm Poly (dA-dT)” value with poly(dA-dT) turned out to be 20.6 °C. Further, the “# Cured/#Treated (%)” value in assay [3] (mice, 1, 2.5, 5, 10, 25 mg/kg/day i.p. for 3 days (all doses cured)) is 5/5*. Also, the MSD in assay [3] (mice, 1, 2.5, 5, 10, 25 mg/kg/day i.p. for 3 days (all doses)) is above 30 days.
Take `N=C(NO)c1ccc(NC(=O)c2cccc(C(=O)Nc3ccc(C(=N)NO)cc3)c2)cc1` [compound 0323]: the “DNA Binding Δ Tm Calf thymus” value in the assay with calf thymus DNA was 0.6 °C. Further, the “DNA Binding Δ Tm Poly (dA-dT)” value with poly(dA-dT) came out at 0.1 °C.
Regarding `N=C(NO)c1ccc(C(=O)Nc2ccc(NC(=O)c3ccc(C(=N)NO)cc3)cc2)cc1` [compound 0353], in the assay on calf thymus DNA, the “DNA Binding Δ Tm Calf thymus” value was found to be 0.4 °C. Moreover, the “DNA Binding Δ Tm Poly (dA-dT)” value in the assay on poly(dA-dT) came out at 0.1 °C.
Take `N=C(N)c1ccc(NC(=O)CCC(=O)Nc2ccc(C(=N)N)cc2)cc1` [compound 0707]: the values for the half-inhibitory concentration (IC50) in assay [1] and in assay [2] were 9000 nM and 2190 nM, respectively.
For the molecule `Cl.Cl.c1cc(N2CCCN(c3ccc(C4=NCCCN4)cc3)CC2)ccc1C1=NCCCN1` [732N], the “DNA Binding Δ Tm Calf thymus” value in the assay with calf thymus DNA turned out to be 15.5 °C. The “DNA Binding Δ Tm Poly (dA-dT)” value in the assay on poly(dA-dT) was 21.3 °C.
Consider `N#Cc1ccc(NC(=O)C(=O)Nc2ccc(C#N)cc2)cc1` [compound 0713], for which the IC50 was found to be 680 nM in assay [1] and 340 nM in assay [2].
Turning to `NC(=O)c1ccc(NC(=O)CCCCC(=O)Nc2ccc(C(N)=O)cc2)cc1` [compound 0716], the IC50 in assay [1] came to 2800 nM; in assay [2], 1100 nM.
On to `O=C(Nc1ccccc1)C(=O)Nc1ccccc1` [compound 0714], for which the IC50 in assay [2] worked out at 155 nM.
As to `N=C(N)c1ccc(OC(=O)c2ccc(C(=O)Oc3ccc(C(=N)N)cc3)cc2)cc1` [compound 0432], the IC50 in assay [1] is 4300 nM; in assay [2], 3100 nM. The “DNA Binding Δ Tm Calf thymus” value with calf thymus DNA worked out at 9.9 °C.

Source of the values: US20080139534A1, “Bisbenzamidines and bisbenzamidoximes for the treatment of human African trypanosomiasis” (XAVIER UNIVERSITY OF LOUISIANA, priority 2006, published 2008).
